# Experimental data reported in ChEMBL document CHEMBL3885881, “DrugMatrix”.
# Organism: Rattus norvegicus
# Assay: DrugMatrix - Regimen: Daily Repeat
# Format: toxicity, organism-based, Sprague-Dawley
# Set-up: regimen Daily Repeat, gender Male, age 6-8 weeks
# Settings: in vivo, po, route oral GAVAGE, vehicle .5 % CMC; for ABSOLUTE BASOPHIL / ABSOLUTE EOSINOPHIL / ABSOLUTE LYMPHOCYTE / ABSOLUTE MONOCYTE / ABSOLUTE SEGMENTED NEUTROPHIL / BASOPHIL / EOSINOPHIL / ERYTHROCYTE COUNT / HEMATOCRIT / HEMOGLOBIN / LEUKOCYTE COUNT / LYMPHOCYTE / MEAN CORPUSCULAR HEMOGLOBIN / MEAN CORPUSCULAR HEMOGLOBIN CONCENTRATION / MEAN CORPUSCULAR VOLUME / MONOCYTE / NEUTROPHIL / NUCLEATED RED BLOOD CELLS / PLATELET COUNT: tissue Blood; for ALANINE AMINOTRANSFERASE / ALBUMIN / ALKALINE PHOSPHATASE / ASPARTATE AMINOTRANSFERASE / BLOOD UREA NITROGEN / CARBON DIOXIDE / CHLORIDE / CHOLESTEROL / CREATINE PHOSPHOKINASE / CREATININE / GLUCOSE / LACTATE DEHYDROGENASE / LIPASE / PHOSPHORUS / POTASSIUM / SODIUM / TOTAL BILIRUBIN / TOTAL PROTEIN / URIC ACID: tissue Plasma
# [1] = 50 mg/kg, 120 h, dose level Low, time 5 day
# [2] = 2500 mg/kg, 72 h, dose level High, time 3 day
# [3] = 2500 mg/kg, 120 h, dose level High, time 5 day
smiles,measurement,setting,value
CC(=O)O[C@]1(C(C)=O)CC[C@H]2[C@@H]3C=C(Cl)C4=CC(=O)[C@@H]5C[C@@H]5[C@]4(C)[C@H]3CC[C@@]21C [CYPROTERONE ACETATE],ABSOLUTE BASOPHIL,[1],0 CELLS/uL
same,ABSOLUTE EOSINOPHIL,[1],24.33 CELLS/uL
same,ABSOLUTE LYMPHOCYTE,[1],7928 CELLS/uL
same,ABSOLUTE MONOCYTE,[1],144 CELLS/uL
same,ABSOLUTE SEGMENTED NEUTROPHIL,[1],637 CELLS/uL
same,BASOPHIL,[1],0%
same,EOSINOPHIL,[1],0.33%
same,ERYTHROCYTE COUNT,[1],5.93 x10E6/uL
same,HEMATOCRIT,[1],37.07%
same,HEMOGLOBIN,[1],14.9 G/DL
same,LEUKOCYTE COUNT,[1],8.73 x10E3/uL
same,LYMPHOCYTE,[1],90.33%
same,MEAN CORPUSCULAR HEMOGLOBIN,[1],25.13 pg
same,MEAN CORPUSCULAR HEMOGLOBIN CONCENTRATION,[1],40.23 G/DL
same,MEAN CORPUSCULAR VOLUME,[1],62.47 fL
same,MONOCYTE,[1],1.67%
same,NEUTROPHIL,[1],7.67%
same,NUCLEATED RED BLOOD CELLS,[1],0 /100WBC
same,PLATELET COUNT,[1],1115.67 x10E3/uL
same,ALANINE AMINOTRANSFERASE,[1],68.33 u/L
same,ALBUMIN,[1],4.4 G/DL
same,ALKALINE PHOSPHATASE,[1],339 u/L
same,ASPARTATE AMINOTRANSFERASE,[1],88 u/L
same,BLOOD UREA NITROGEN,[1],15.67 mg/dL
same,CARBON DIOXIDE,[1],30.33 mmol/L
same,CHLORIDE,[1],101 MEQ/L
same,CHOLESTEROL,[1],79 mg/dL
same,CREATINE PHOSPHOKINASE,[1],291 u/L
same,CREATININE,[1],0.18 mg/dL
same,GLUCOSE,[1],165 mg/dL
same,LACTATE DEHYDROGENASE,[1],169 u/L
same,LIPASE,[1],11 u/L
same,PHOSPHORUS,[1],12.3 mg/dL
same,POTASSIUM,[1],5.54 MEQ/L
same,SODIUM,[1],144.17 MEQ/L
same,TOTAL BILIRUBIN,[1],0.13 mg/dL
same,TOTAL PROTEIN,[1],6.5 G/DL
same,URIC ACID,[1],1.33 mg/dL
same,ABSOLUTE BASOPHIL,[2],0 CELLS/uL
same,ABSOLUTE EOSINOPHIL,[2],156.67 CELLS/uL
same,ABSOLUTE LYMPHOCYTE,[2],10772 CELLS/uL
same,ABSOLUTE MONOCYTE,[2],88.67 CELLS/uL
same,ABSOLUTE SEGMENTED NEUTROPHIL,[2],1249.33 CELLS/uL
same,BASOPHIL,[2],0%
same,EOSINOPHIL,[2],1.33%
same,ERYTHROCYTE COUNT,[2],5.59 x10E6/uL
same,HEMATOCRIT,[2],36.7%
same,HEMOGLOBIN,[2],14.03 G/DL
same,LEUKOCYTE COUNT,[2],12.27 x10E3/uL
same,LYMPHOCYTE,[2],88%
same,MEAN CORPUSCULAR HEMOGLOBIN,[2],25.07 pg
same,MEAN CORPUSCULAR HEMOGLOBIN CONCENTRATION,[2],38.23 G/DL
same,MEAN CORPUSCULAR VOLUME,[2],65.63 fL
same,MONOCYTE,[2],0.67%
same,NEUTROPHIL,[2],10%
same,NUCLEATED RED BLOOD CELLS,[2],0.33 /100WBC
same,PLATELET COUNT,[2],1080.33 x10E3/uL
same,ALANINE AMINOTRANSFERASE,[2],69.67 u/L
same,ALBUMIN,[2],4.07 G/DL
same,ALKALINE PHOSPHATASE,[2],424.67 u/L
same,ASPARTATE AMINOTRANSFERASE,[2],99.67 u/L
same,BLOOD UREA NITROGEN,[2],14.33 mg/dL
same,CARBON DIOXIDE,[2],30 mmol/L
same,CHLORIDE,[2],100.67 MEQ/L
same,CHOLESTEROL,[2],113.33 mg/dL
same,CREATINE PHOSPHOKINASE,[2],639.67 u/L
same,CREATININE,[2],0.2 mg/dL
same,GLUCOSE,[2],151.33 mg/dL
same,LACTATE DEHYDROGENASE,[2],603.33 u/L
same,LIPASE,[2],12.67 u/L
same,PHOSPHORUS,[2],11.2 mg/dL
same,POTASSIUM,[2],6.3 MEQ/L
same,SODIUM,[2],141.73 MEQ/L
same,TOTAL BILIRUBIN,[2],0.13 mg/dL
same,TOTAL PROTEIN,[2],6 G/DL
same,URIC ACID,[2],0.83 mg/dL
same,ABSOLUTE BASOPHIL,[3],0 CELLS/uL
same,ABSOLUTE EOSINOPHIL,[3],62.33 CELLS/uL
same,ABSOLUTE LYMPHOCYTE,[3],8852.33 CELLS/uL
same,ABSOLUTE MONOCYTE,[3],146.33 CELLS/uL
same,ABSOLUTE SEGMENTED NEUTROPHIL,[3],2339 CELLS/uL
same,BASOPHIL,[3],0%
same,EOSINOPHIL,[3],0.67%
same,ERYTHROCYTE COUNT,[3],5.55 x10E6/uL
same,HEMATOCRIT,[3],34.3%
same,HEMOGLOBIN,[3],13.77 G/DL
same,LEUKOCYTE COUNT,[3],11.4 x10E3/uL
same,LYMPHOCYTE,[3],80%
same,MEAN CORPUSCULAR HEMOGLOBIN,[3],24.8 pg
same,MEAN CORPUSCULAR HEMOGLOBIN CONCENTRATION,[3],40.13 G/DL
same,MEAN CORPUSCULAR VOLUME,[3],61.87 fL
same,MONOCYTE,[3],1.33%
same,NEUTROPHIL,[3],18%
same,NUCLEATED RED BLOOD CELLS,[3],0.33 /100WBC
same,PLATELET COUNT,[3],1381.33 x10E3/uL
same,ALANINE AMINOTRANSFERASE,[3],94 u/L
same,ALBUMIN,[3],4.3 G/DL
same,ALKALINE PHOSPHATASE,[3],317.67 u/L
same,ASPARTATE AMINOTRANSFERASE,[3],101.67 u/L
same,BLOOD UREA NITROGEN,[3],21.33 mg/dL
same,CARBON DIOXIDE,[3],23.67 mmol/L
same,CHLORIDE,[3],98.67 MEQ/L
same,CHOLESTEROL,[3],98.67 mg/dL
same,CREATINE PHOSPHOKINASE,[3],467 u/L
same,CREATININE,[3],0.27 mg/dL
same,GLUCOSE,[3],223 mg/dL
same,LACTATE DEHYDROGENASE,[3],496 u/L
same,LIPASE,[3],10.67 u/L
same,PHOSPHORUS,[3],12.8 mg/dL
same,POTASSIUM,[3],6.34 MEQ/L
same,SODIUM,[3],142.07 MEQ/L
same,TOTAL BILIRUBIN,[3],0.17 mg/dL
same,TOTAL PROTEIN,[3],7 G/DL
same,URIC ACID,[3],2.1 mg/dL
